{"source": "patent US9393219B2", "about": "“Monophenols and benzenediols sensitization of immune system against haptenized melanoma antigens” (ACADEMISCH ZIEKENHUIS BIJ DE UNIVERSITEIT VAN AMSTERDAM, priority 2005, dated 2016)", "molecules": {"B1": {"name": "interferon (IFNγ): interferon (IFNγ) used as immunotherapy for metastatic melanoma (protein, UniProt P01579 24-161, looked up)", "Interferon gamma": "QDPYVKEAENLKKYFNAGHSDVADNGTLFLGILKNWKEESDRKIMQSQIVSFYFKLFKNFKDDQSIQKSVETIKEDMNVKFFNSNKKKRDDFEKLTNYSVTDLNVQRKAIHELIQVMAELSPAAKTGKRKRSQMLFRG"}}, "key": {"[1]": {"system": "melanocytes and keratinocytes", "assay": "in vitro toxic effects on melanocytes and keratinocytes", "assay_type": "cell-based", "description": "(§1) No reaction occurs in depigmented skin. This entails that the inflammatory reaction is directed towards something, what is only present in melanocytes, e.g. tyrosinase, TRP1 and/or TRP2. However, auto-antibodies to tyrosinase, TRP1 and TRP2 have been reported to occur at low frequencies, or not at all, in vitiligo patients (37,38,39,40,41)."}, "[2]": {"system": "skin of vitiligo patients", "assay": "histology of skin of vitiligo patients undergoing depigmentation therapy", "assay_type": "in vivo, human", "description": "as §1"}, "skin": {"system": "skin", "settings": "cases in workers of polymer or leather industries; cited from earlier work"}, "[3]": {"system": "pigmented skin / depigmented skin", "assay": "in vivo inflammatory response of pigmented and depigmented skin", "parameters": "species or system human", "description": "as §1"}, "melanoma": {"system": "melanoma", "settings": "cited from earlier work; for toxicity of intra arterial infusion: intra arterial infusions in the lower limbs, high doses; for efficacy as chemotherapeutic in melanoma: metastatic/disseminated melanoma, intra arterial infusion of high doses"}, "metastatic melanoma": {"system": "metastatic melanoma", "settings": "immunotherapy; cited from earlier work"}}, "note": "Read-outs that look alike come from different tables or passages of the source."}
{"molecule": "Oc1ccc(OCc2ccccc2)cc1", "note": "[Monobenzone, p-(benzyloxy)phenol]", "values": [{"measurement": "sensitivity of melanocytes and keratinocytes to the toxic effects", "setting": "[1]", "value": "equally sensitive"}, {"measurement": "histology of skin: infiltrate", "setting": "[2]", "value": "dense infiltrate consisting of mainly CD8^+ cells and macrophages"}, {"measurement": "granulocytes in the skin infiltrate", "setting": "[2]; granulocytes would indicate a toxic (orthoergic) reaction", "value": "no granulocytes"}, {"measurement": "depigmentation on exposure of the skin", "setting": "skin", "value": "causes leukoderma and can induce vitiligo-like depigmentation"}, {"measurement": "inflammatory reaction", "setting": "[3]; depigmented skin", "value": "No reaction"}, {"measurement": "inflammatory response with erythema, edema and scaliness", "setting": "[3]; pigmented skin", "value": "only seen in the pigmented skin"}]}
{"molecule": "COc1ccc(O)cc1", "note": "[4-HA, 4-hydroxyanisole]", "values": [{"measurement": "toxicity of intra arterial infusion", "setting": "melanoma", "value": "serious renal and hepatic toxicity"}, {"measurement": "toxicity of intra arterial infusion", "setting": "melanoma; listed as 4-Hydroxyanisole", "value": "severe toxic events"}, {"measurement": "efficacy as chemotherapeutic in melanoma", "setting": "melanoma", "value": "without success"}, {"measurement": "efficacy as chemotherapeutic in melanoma", "setting": "melanoma; listed as 4-Hydroxyanisole", "value": "not effective"}]}
{"molecule": "CC(C)(C)c1ccc(O)c(O)c1", "note": "[TBC, 4-tert-butylcatechol]", "values": [{"measurement": "depigmentation on exposure of the skin", "setting": "skin", "value": "causes leukoderma and can induce vitiligo-like depigmentation"}]}
{"molecule": "B1", "values": [{"measurement": "response rate", "setting": "metastatic melanoma", "value": "approximately 15%"}]}
